According to patent US11612606B2, “8-aminoisoquinoline compounds and uses thereof” (priority 2018, dated 2023):

The compounds below were run against HPK full length, T165E S171E (Homo sapiens (Human), UniProt Q92918, S171E/T165E) (assay: HPK1-FL HTRF enzymatic assay ("HTRF")). Details: ATP 1 mM, read-out: HPK1 Ki.
Sequence of HPK full length, T165E S171E (Q92918 whole entry T165E/S171E, looked up): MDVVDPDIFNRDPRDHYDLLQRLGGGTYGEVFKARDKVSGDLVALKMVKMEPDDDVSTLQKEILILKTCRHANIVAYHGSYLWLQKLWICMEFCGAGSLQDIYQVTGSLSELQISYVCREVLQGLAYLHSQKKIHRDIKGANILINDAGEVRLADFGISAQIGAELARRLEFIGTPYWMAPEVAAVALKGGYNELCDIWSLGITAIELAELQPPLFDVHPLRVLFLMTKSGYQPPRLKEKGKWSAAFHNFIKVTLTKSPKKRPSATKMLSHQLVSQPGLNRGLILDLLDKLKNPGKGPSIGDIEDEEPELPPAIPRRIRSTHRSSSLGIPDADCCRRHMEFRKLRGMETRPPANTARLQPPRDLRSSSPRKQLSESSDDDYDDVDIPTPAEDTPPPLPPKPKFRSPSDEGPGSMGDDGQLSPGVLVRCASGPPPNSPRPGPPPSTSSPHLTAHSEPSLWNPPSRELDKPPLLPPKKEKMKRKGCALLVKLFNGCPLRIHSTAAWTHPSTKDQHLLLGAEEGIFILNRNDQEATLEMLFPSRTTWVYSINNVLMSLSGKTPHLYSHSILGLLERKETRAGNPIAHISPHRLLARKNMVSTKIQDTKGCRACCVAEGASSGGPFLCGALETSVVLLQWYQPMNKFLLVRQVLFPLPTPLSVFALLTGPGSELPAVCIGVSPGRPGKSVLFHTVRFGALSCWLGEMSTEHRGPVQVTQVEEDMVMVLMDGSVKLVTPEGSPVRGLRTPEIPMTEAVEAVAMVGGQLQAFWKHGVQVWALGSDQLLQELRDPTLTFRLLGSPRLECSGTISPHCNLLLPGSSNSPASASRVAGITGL
Type: biochemical
Procedure, shortened: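 HTRF detection of phosphorylated biotin-SLP-76 used Eu-anti-pSLP76 antibody and SA-XL665, read after 60 min. The kinase reaction ran 60 min at […], following a 30-min compound preincubation with the full-length enzyme.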
For `CNC(=O)Nc1cc2cc(-c3cnc4c(c3C)NCCC4)c(F)c(N)c2cn1` [Compound 705, 1-[8-Amino-7-fluoro-6-(4-methyl-5,6,7,8-tetrahydro-1,5-naphthyridin-3-yl)-3-isoquinolyl]-3-methyl-urea], the Ki was 0.15 nM. With `Cc1c(-c2cc3cc(NC(=O)NC4CCCC4)ncc3c(N)c2F)cnc2c1NCCO2` [Compound 706, 1-(8-Amino-7-fluoro-6-(8-methyl-2,3-dihydro-1H-pyrido[2,3-b][1,4]oxazin-7-yl)isoquinolin-3-yl)-3-cyclopentylurea] the Ki was < 0.013 nM. `Cc1c(-c2cc3cc(NC(=O)NC4CCC4)ncc3c(N)c2F)cnc2c1NCCO2` [Compound 707, 1-(8-Amino-7-fluoro-6-(8-methyl-2,3-dihydro-1H-pyrido[2,3-b][1,4]oxazin-7-yl)isoquinolin-3-yl)-3-cyclobutylurea] was tested, and the Ki was < 0.013 nM. With `Cc1c(-c2cc3cc(NC(=O)NC4CC5(C4)CN(CC(F)(F)F)C5)ncc3c(N)c2F)cnc2c1NCCO2` [Compound 708, 1-(8-Amino-7-fluoro-6-(8-methyl-2,3-dihydro-1H-pyrido[2,3-b][1,4]oxazin-7-yl)isoquinolin-3-yl)-3-(2-(2,2,2-trifluoroethyl)-2-azaspiro[3.3]heptan-6-yl)urea] the Ki was < 0.013 nM. With `CC(=O)N1CC2(CC(NC(=O)Nc3cc4cc(-c5cnc6c(c5C)NCCO6)c(F)c(N)c4cn3)C2)C1` [Compound 709, 1-(2-Acetyl-2-azaspiro[3.3]heptan-6-yl)-3-(8-amino-7-fluoro-6-(8-methyl-2,3-dihydro-1H-pyrido[2,3-b][1,4]oxazin-7-yl)isoquinolin-3-yl)urea] the Ki was < 0.013 nM. For `Cc1c(-c2cc3cc(NC(=O)N[C@H]4[C@@H]5COC[C@@H]54)ncc3c(N)c2F)cnc2c1NCCO2` [Compound 713a, 1-(8-Amino-7-fluoro-6-(8-methyl-2,3-dihydro-1H-pyrido[2,3-b][1,4]oxazin-7-yl)isoquinolin-3-yl)-3-((1R,5S,6r)-3-oxabicyclo[3.1.0]hexan-6-yl)urea], the Ki was < 0.013 nM. With `Cc1c(-c2cc3cc(NC(=O)NC4CC(F)(F)C4)ncc3c(N)c2F)cnc2c1NCCO2` [Compound 714, 1-(8-Amino-7-fluoro-6-(8-methyl-2,3-dihydro-1H-pyrido[2,3-b][1,4]oxazin-7-yl)isoquinolin-3-yl)-3-(3,3-difluorocyclobutyl)urea] the Ki was < 0.013 nM. In the case of `Cc1c(-c2cc3cc(NC(=O)N[C@@H]4CCOC4)ncc3c(N)c2F)cnc2c1NCCC2` [Compound 719a, (R)-1-(8-Amino-7-fluoro-6-(4-methyl-5,6,7,8-tetrahydro-1,5-naphthyridin-3-yl)isoquinolin-3-yl)-3-(tetrahydrofuran-3-yl)urea], the Ki is reported as 0.016 nM. For `CCNC(=O)Nc1cc2cc(-c3cnc4c(c3C)NCCO4)c(F)c(N)c2cn1` [Compound 720, 1-(8-Amino-7-fluoro-6-(8-methyl-2,3-dihydro-1H-pyrido[2,3-b][1,4]oxazin-7-yl)isoquinolin-3-yl)-3-ethylurea], the Ki was < 0.013 nM. `Cc1c(-c2cc3cc(NC(=O)NC4CN(CC(F)(F)F)C4)ncc3c(N)c2F)cnc2c1NCCO2` [Compound 721, 1-(8-Amino-7-fluoro-6-(8-methyl-2,3-dihydro-1H-pyrido[2,3-b][1,4]oxazin-7-yl)isoquinolin-3-yl)-3-(1-(2,2,2-trifluoroethyl)azetidin-3-yl)urea] was tested, and the Ki was < 0.013 nM. `Cc1c(-c2cc3cc(NC(=O)N[C@@H]4CCC[C@@H]4F)ncc3c(N)c2F)cnc2c1NCCO2` [Compound 727a, 1-[8-Amino-7-fluoro-6-(8-methyl-2,3-dihydro-1H-pyrido[2,3-b][1,4]oxazin-7-yl)-3-isoquinolyl]-3-[(1R,2S)-2-fluorocyclopentyl]urea] was tested, and the Ki was < 0.013 nM. For `Cc1c(-c2cc3cc(NC(=O)N[C@H]4C[C@H](F)C4)ncc3c(N)c2F)cnc2c1NCCC2` [Compound 732a, 1-(8-amino-7-fluoro-6-(4-methyl-5,6,7,8-tetrahydro-1,5-naphthyridin-3-yl)isoquinolin-3-yl)-3-((1r,3r)-3-fluorocyclobutyl)urea], the Ki was < 0.013 nM. `CO[C@H]1C[C@H](NC(=O)Nc2cc3cc(-c4cnc5c(c4C)NCCO5)c(F)c(N)c3cn2)C1` [Compound 733a, 1-[8-Amino-7-fluoro-6-(8-methyl-2,3-dihydro-1H-pyrido[2,3-b][1,4]oxazin-7-yl)-3-isoquinolyl]-3-(3-methoxycyclobutyl)urea] was tested, and the Ki was < 0.013 nM. `Cc1c(-c2cc3cc(NC(=O)N[C@H]4C[C@H]4F)ncc3c(N)c2F)cnc2c1NCCO2` [Compound 734a, 1-[8-Amino-7-fluoro-6-(8-methyl-2,3-dihydro-1H-pyrido[2,3-b][1,4]oxazin-7-yl)-3-isoquinolyl]-3-[(1S,2R)-2-fluorocyclopropyl]urea] was tested, and the Ki was < 0.013 nM. With `Cc1c(-c2cc3cc(NC(=O)NC4CC5(C4)CN(CC(F)F)C5)ncc3c(N)c2F)cnc2c1NCCC2` [Compound 739, 1-(8-Amino-7-fluoro-6-(4-methyl-5,6,7,8-tetrahydro-1,5-naphthyridin-3-yl)isoquinolin-3-yl)-3-(2-(2,2-difluoroethyl)-2-azaspiro[3.3]heptan-6-yl)urea] the Ki was < 0.013 nM. For `Cc1c(-c2cc3cc(NC(=O)N[C@H]4C[C@]5(CCOC5)C4)ncc3c(N)c2F)cnc2c1NCCC2` [Compound 740a, 1-(8-Amino-7-fluoro-6-(4-methyl-5,6,7,8-tetrahydro-1,5-naphthyridin-3-yl)isoquinolin-3-yl)-3-((2s,4s)-6-oxaspiro[3.4]octan-2-yl)urea], the Ki was < 0.013 nM. In the case of `Cc1c(-c2cc3cc(NC(=O)N[C@H]4C[C@@]5(CCOC5)C4)ncc3c(N)c2F)cnc2c1NCCC2` [Compound 740b, 1-(8-Amino-7-fluoro-6-(4-methyl-5,6,7,8-tetrahydro-1,5-naphthyridin-3-yl)isoquinolin-3-yl)-3-((2r,4r)-6-oxaspiro[3.4]octan-2-yl)urea], the Ki is reported as < 0.013 nM. `Cc1c(-c2cc3cc(NC(=O)N(C)C)ncc3c(N)c2F)cnc2c1NCCO2` [Compound 742, 3-(8-Amino-7-fluoro-6-(8-methyl-2,3-dihydro-1H-pyrido[2,3-b][1,4]oxazin-7-yl)isoquinolin-3-yl)-1,1-dimethylurea] gave a Ki of 1.12 nM. For `Cc1c(-c2cc3cc(NC(=O)N4CCCC4)ncc3c(N)c2F)cnc2c1NCCO2` [Compound 745, N-(8-Amino-7-fluoro-6-(8-methyl-2,3-dihydro-1H-pyrido[2,3-b][1,4]oxazin-7-yl)isoquinolin-3-yl)pyrrolidine-1-carboxamide], the Ki was 0.29 nM. `Cc1c(-c2cc3cc(NC(=O)NC(C)C)ncc3c(N)c2F)cnc2c1NCCO2` [Compound 746, 1-(8-Amino-7-fluoro-6-(8-methyl-2,3-dihydro-1H-pyrido[2,3-b][1,4]oxazin-7-yl)isoquinolin-3-yl)-3-isopropylurea] was tested, and the Ki was < 0.013 nM. With `Cc1c(-c2cc3cc(NC(=O)N[C@H]4C[C@@H](F)C4)ncc3c(N)c2F)cnc2c1NCCO2` [Compound 748a, 1-(8-Amino-7-fluoro-6-(8-methyl-2,3-dihydro-1H-pyrido[2,3-b][1,4]oxazin-7-yl)isoquinolin-3-yl)-3-((1s,3s)-3-fluorocyclobutyl)urea] the Ki was < 0.013 nM. Compound `Cc1c(-c2cc3cc(NC(=O)N[C@H]4C[C@H](F)C4)ncc3c(N)c2F)cnc2c1NCCO2` [Compound 748b, 1-(8-Amino-7-fluoro-6-(8-methyl-2,3-dihydro-1H-pyrido[2,3-b][1,4]oxazin-7-yl)isoquinolin-3-yl)-3-((1r,3r)-3-fluorocyclobutyl)urea] has a Ki of 0.018 nM. `Cc1c(N)cncc1-c1cc2cc(NC(=O)NC3CCCC3)ncc2c(N)c1F` [Compound 749, 1-(8-Amino-6-(5-amino-4-methylpyridin-3-yl)-7-fluoroisoquinolin-3-yl)-3-cyclopentylurea] showed a Ki of 0.102 nM. With `Cc1c(-c2cc3cc(NC(=O)N(C)C4CCC4)ncc3c(N)c2F)cnc2c1NCCO2` [Compound 752, 3-(8-Amino-7-fluoro-6-(8-methyl-2,3-dihydro-1H-pyrido[2,3-b][1,4]oxazin-7-yl)isoquinolin-3-yl)-1-cyclobutyl-1-methylurea] the Ki was 0.52 nM. For `Cc1c(-c2cc3cc(NC(=O)N4CC5(CCOCC5)C4)ncc3c(N)c2F)cnc2c1NCCO2` [Compound 753, N-(8-Amino-7-fluoro-6-(8-methyl-2,3-dihydro-1H-pyrido[2,3-b][1,4]oxazin-7-yl)isoquinolin-3-yl)-7-oxa-2-azaspiro[3.5]nonane-2-carboxamide], the Ki was 0.039 nM. With `Cc1c(-c2cc3cc(NC(=O)N4CC(C)(O)C4)ncc3c(N)c2F)cnc2c1NCCO2` [Compound 754] the Ki was 0.205 nM. For `Cc1c(-c2cc3cc(NC(=O)N4CCC4)ncc3c(N)c2F)cnc2c1NCCO2` [Compound 756, N-(8-Amino-7-fluoro-6-(8-methyl-2,3-dihydro-1H-pyrido[2,3-b][1,4]oxazin-7-yl)isoquinolin-3-yl)azetidine-1-carboxamide], the Ki was 0.02 nM.

Same assay, conditions: HPK1 Ki, ATP 1 mM
With `CO[C@@H]1CC[C@@H](NC(=O)Nc2cc3cc(-c4cnc5c(c4C)NCCO5)c(F)c(N)c3cn2)C1` [Compound 730a, 1-(8-amino-7-fluoro-6-(8-methyl-2,3-dihydro-1H-pyrido[2,3-b][1,4]oxazin-7-yl)isoquinolin-3-yl)-3-((1R,3R)-3-methoxycyclopentyl)urea] the Ki was < 0.013 nM. With `CO[C@H]1CC[C@H](NC(=O)Nc2cc3cc(-c4cnc5c(c4C)NCCO5)c(F)c(N)c3cn2)C1` [Compound 730b, 1-(8-amino-7-fluoro-6-(8-methyl-2,3-dihydro-1H-pyrido[2,3-b][1,4]oxazin-7-yl)isoquinolin-3-yl)-3-((1S,3S)-3-methoxycyclopentyl)urea] the Ki was < 0.013 nM. For `CO[C@H]1CC[C@@H](NC(=O)Nc2cc3cc(-c4cnc5c(c4C)NCCO5)c(F)c(N)c3cn2)C1` [Compound 730c, 1-(8-amino-7-fluoro-6-(8-methyl-2,3-dihydro-1H-pyrido[2,3-b][1,4]oxazin-7-yl)isoquinolin-3-yl)-3-((1R,3S)-3-methoxycyclopentyl)urea], the Ki was < 0.013 nM. For `CO[C@@H]1CC[C@H](NC(=O)Nc2cc3cc(-c4cnc5c(c4C)NCCO5)c(F)c(N)c3cn2)C1` [Compound 730d, 1-(8-amino-7-fluoro-6-(8-methyl-2,3-dihydro-1H-pyrido[2,3-b][1,4]oxazin-7-yl)isoquinolin-3-yl)-3-((1S,3R)-3-methoxycyclopentyl)urea], the Ki was < 0.013 nM.
